# From US20150284385A1, “CERTAIN DIPEPTIDYL PEPTIDASE INHIBITORS” (SHANGHAI FOCHON PHARMACEUTICAL CO LTD, priority 2012, published 2015)
# Like-named read-outs stand apart in the source and are kept apart here.
# Key:
# Recombinant human DPP-IV = Recombinant human DPP-IV (Homo sapiens, UniProt P27487); test: DPP-IV assay in vitro (H-Ala-Pro-AFC fluorescence); type: biochemical; details: 30 min pre-incubation, H-Ala-Pro-AFC 50 μM
# Protocol: DPP-IV Assay Solutions of test compounds in varying concentrations (10^−5 mol/L, 10^−6 mol/L, 10^−7 mol/L, 10^−8 mol/L, 10^−9 mol/L, 10^−10 mol/L, 10^−11 mol/L, and 10^−12 mol/L) were prepared in dimethyl sulfoxide (DMSO) and then diluted into assay buffer comprising: 10 mM Tris-HCl pH 8.0, 0.2 M NaCl, and 0.1% BSA. Recombinant human DPP-IV (7.8 ng/ml final concentration) was added to the dilutions and pre-incubated for 30 mins at room temperature before the reaction was initiated with H-Ala-Pro-AFC (50 μM final concentration). The total volume of the reaction mixture was 100 μl.
# Inhibition constants (IC50) were calculated by GraphPad Prism.
# DPP-4 = target: T1, DPP-4 (Mus musculus, UniProt P28843); test: Plasma DPP-4 activity in mice after oral dosing; type: in vivo, ICR mice; details: read-out: DPP-4 Relative activity %; for activity at 1 mg/kg: oral 1 mg/kg; for activity at 3 mg/kg: mice plasma, oral 3 mg/kg
# T1 construct: Blood sample was processed to obtain plasma; from tissue; host or cells: plasma of male ICR mice
# T1 sequence (P28843 37-760 limits assumed): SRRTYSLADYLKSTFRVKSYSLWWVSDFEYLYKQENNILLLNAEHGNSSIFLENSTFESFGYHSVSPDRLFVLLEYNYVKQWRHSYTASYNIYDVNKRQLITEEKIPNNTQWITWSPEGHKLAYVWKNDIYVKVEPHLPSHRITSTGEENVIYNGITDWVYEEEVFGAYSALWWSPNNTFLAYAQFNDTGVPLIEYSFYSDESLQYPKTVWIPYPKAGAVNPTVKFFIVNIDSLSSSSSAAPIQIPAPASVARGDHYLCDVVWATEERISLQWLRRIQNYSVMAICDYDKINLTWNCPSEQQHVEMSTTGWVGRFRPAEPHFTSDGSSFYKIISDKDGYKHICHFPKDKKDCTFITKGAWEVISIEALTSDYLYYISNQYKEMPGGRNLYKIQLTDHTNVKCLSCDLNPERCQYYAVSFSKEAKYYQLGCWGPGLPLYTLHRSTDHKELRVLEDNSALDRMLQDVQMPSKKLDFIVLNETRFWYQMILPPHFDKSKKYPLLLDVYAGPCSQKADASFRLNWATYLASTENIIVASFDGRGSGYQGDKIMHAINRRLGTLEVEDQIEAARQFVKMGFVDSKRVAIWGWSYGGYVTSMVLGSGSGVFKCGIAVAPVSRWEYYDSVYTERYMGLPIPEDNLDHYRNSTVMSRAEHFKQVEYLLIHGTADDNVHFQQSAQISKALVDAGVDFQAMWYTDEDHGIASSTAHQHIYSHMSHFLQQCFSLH
# Protocol: Some of the exemplary compounds were tested in mice to assess inhibition of DPP-4 activity via plasma DPP-4 activity. Male ICR mice (25-30 g) were used for this study. All the mice were fasted at least 3 hours before study. Mice (n=6/group) received vehicle or at least one of the exemplary compounds by oral gavage. The dosing solutions were 0.15 mg/ml for the 3 mg/kg. Dosing volume was 20 mL/kg of body weight for all doses. The vehicle was distilled water. […] Blood sample was processed to obtain plasma (2000 g, 5 min, 4° C.) within 15 min after sampling.
# Plasma was collected and tested by fluoremetry. Before the testing, 80 mM MgCl2 buffer was added into the 5 uL serum samples and pre-incubation for 5 minutes at room temperature, then […] of 0.1 mM substrate Gly-Pro-AMC and 20 μL of buffer were added into them. The fluorescence of the mixture was measured every 3 minutes after mixing (excitation at 380 nm; emission at 460 nm). After 6 times of measurements, a time-fluorescence cure was obtained. The slope of the curve would be the activity of DPP-4 in serum. The DPP-4 activity before administration was 100%. The relative activity of DPP-4 in serum was calculated using the formula below:
# Relative DPP-4activity=DPP-4activity after dosing/DPP-4activity before dosing×100%.
# [1] = Table 4 Test 2, mice plasma, 1 h after dosing
# [2] = Table 4 Test 2, mice plasma, 2 h after dosing
# [3] = Table 4 Test 2, mice plasma, 4 h after dosing
# [4] = Table 4 Test 2, mice plasma, 6 h after dosing
# [5] = Table 4 Test 2, mice plasma, 9 h after dosing
# [6] = Table 4 Test 2, mice plasma, 24 h after dosing
# [7] = Table 4 Test 1, mice plasma, 1 h after dosing
# [8] = Table 4 Test 1, mice plasma, 2 h after dosing
# [9] = Table 4 Test 1, mice plasma, 4 h after dosing
# [10] = Table 4 Test 1, mice plasma, 6 h after dosing
# [11] = Table 4 Test 1, mice plasma, 9 h after dosing
# Recombinant human DPP-IV, sequence (P27487 whole entry): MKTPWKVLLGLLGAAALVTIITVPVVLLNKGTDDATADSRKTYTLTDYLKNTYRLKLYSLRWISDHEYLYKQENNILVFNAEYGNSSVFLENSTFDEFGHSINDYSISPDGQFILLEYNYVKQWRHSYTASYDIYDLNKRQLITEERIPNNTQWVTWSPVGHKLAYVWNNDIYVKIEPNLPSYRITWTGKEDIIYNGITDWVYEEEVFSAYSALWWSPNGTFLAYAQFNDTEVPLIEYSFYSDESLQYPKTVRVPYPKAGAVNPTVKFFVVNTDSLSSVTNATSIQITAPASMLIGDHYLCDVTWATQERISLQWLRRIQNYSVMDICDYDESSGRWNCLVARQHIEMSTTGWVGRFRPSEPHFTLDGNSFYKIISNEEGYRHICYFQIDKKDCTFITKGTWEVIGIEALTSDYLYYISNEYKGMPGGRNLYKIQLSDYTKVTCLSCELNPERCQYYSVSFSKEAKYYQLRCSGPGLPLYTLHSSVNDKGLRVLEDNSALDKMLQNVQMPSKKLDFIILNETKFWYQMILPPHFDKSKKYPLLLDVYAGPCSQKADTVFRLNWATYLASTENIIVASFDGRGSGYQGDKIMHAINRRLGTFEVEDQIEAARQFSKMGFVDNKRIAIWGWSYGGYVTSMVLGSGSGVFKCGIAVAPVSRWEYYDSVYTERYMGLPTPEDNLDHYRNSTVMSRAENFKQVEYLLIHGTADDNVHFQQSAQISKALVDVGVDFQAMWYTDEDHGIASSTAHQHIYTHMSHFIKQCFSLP
IC50 (Recombinant human DPP-IV) [nM],activity at 1 mg/kg (DPP-4; [1]) [%],activity at 1 mg/kg (DPP-4; [2]) [%],activity at 1 mg/kg (DPP-4; [3]) [%],activity at 1 mg/kg (DPP-4; [4]) [%],activity at 1 mg/kg (DPP-4; [5]) [%],activity at 1 mg/kg (DPP-4; [6]) [%],activity at 3 mg/kg (DPP-4; 1 h after dosing) [%],activity at 3 mg/kg (DPP-4; 2 h after dosing) [%],activity at 3 mg/kg (DPP-4; 3 h after dosing) [%],activity at 3 mg/kg (DPP-4; 5 h after dosing) [%],activity at 1 mg/kg (DPP-4; [7]) [%],activity at 1 mg/kg (DPP-4; [8]) [%],activity at 1 mg/kg (DPP-4; [9]) [%],activity at 1 mg/kg (DPP-4; [10]) [%],activity at 1 mg/kg (DPP-4; [11]) [%],Structure (SMILES),also measured
1.7,15 ± 0.6,13.6 ± 1.7,8.6 ± 1.1,13.8 ± 2.4,11.8 ± 2.4,38.4 ± 4.3,16 ± 2.3,15 ± 3,20 ± 1.8,26.5 ± 3.5,,,,,,"N[C@H]1Cc2c(nc3cc(-c4ncon4)ccn23)C[C@@H]1c1cc(F)c(F)cc1F [Example 3, (7R,8S)-3-(1,2,4-Oxadiazol-3-yl)-7-(2,4,5-trifluorophenyl)-6,7,8,9-tetrahydrobenzo[4,5]imidazo[1,2-a]pyridine-8-amine]","activity at 1 mg/kg (DPP-4; Table 4 Test 2, mice plasma, 12 h after dosing): 15.6 ± 2.4%"
,15.5 ± 1.1,16.5 ± 2,14.9 ± 2.9,23.3 ± 3.8,34.5 ± 2.7,91.1 ± 4.3,,,,,20.5 ± 3,18.1 ± 2.2,19.9 ± 2,25.3 ± 2,33.3 ± 1.5,"NC(=O)c1ccn2c3c(nc2c1)C[C@H](c1cc(F)c(F)cc1F)[C@@H](N)C3 [Refference 1, (7R,8S)-8-amino-7-(2,4,5-trifluorophenyl)-6,7,8,9-tetrahydrobenzo[4,5]imidazo[1,2-a]pyridine-3-carboxamide, reference compound]","activity at 1 mg/kg (DPP-4; Table 4 Test 1, mice plasma, 12 h after dosing): 49.5 ± 2.8%; activity at 1 mg/kg (DPP-4; Table 4 Test 1, mice plasma, 24 h after dosing): 90.7 ± 3.2%; activity at 1 mg/kg (DPP-4; Table 4 Test 3, mice plasma, 1 h after dosing): 17.5 ± 1.4%; activity at 1 mg/kg (DPP-4; Table 4 Test 3, mice plasma, 2 h after dosing): 17 ± 1.7%; activity at 1 mg/kg (DPP-4; Table 4 Test 3, mice plasma, 4 h after dosing): 22 ± 2.1%; activity at 1 mg/kg (DPP-4; Table 4 Test 3, mice plasma, 6 h after dosing): 33.2 ± 2.7%; activity at 1 mg/kg (DPP-4; Table 4 Test 3, mice plasma, 9 h after dosing): 42.5 ± 2.2%; activity at 1 mg/kg (DPP-4; Table 4 Test 3, mice plasma, 12 h after dosing): 58 ± 2.6%; activity at 1 mg/kg (DPP-4; Table 4 Test 3, mice plasma, 24 h after dosing): 81.9 ± 7.4%"

# Second part, the compound before the results:
Structure (SMILES),IC50 (Recombinant human DPP-IV) [nM],activity at 1 mg/kg (DPP-4; [1]) [%],activity at 1 mg/kg (DPP-4; [2]) [%],activity at 1 mg/kg (DPP-4; [3]) [%],activity at 1 mg/kg (DPP-4; [4]) [%],activity at 1 mg/kg (DPP-4; [5]) [%],activity at 1 mg/kg (DPP-4; [6]) [%],activity at 3 mg/kg (DPP-4; 1 h after dosing) [%],activity at 3 mg/kg (DPP-4; 2 h after dosing) [%],activity at 3 mg/kg (DPP-4; 3 h after dosing) [%],activity at 3 mg/kg (DPP-4; 5 h after dosing) [%],activity at 1 mg/kg (DPP-4; [7]) [%],activity at 1 mg/kg (DPP-4; [8]) [%],activity at 1 mg/kg (DPP-4; [9]) [%],activity at 1 mg/kg (DPP-4; [10]) [%],activity at 1 mg/kg (DPP-4; [11]) [%],also measured
"N[C@H]1Cc2c(nc3cc(-c4ncno4)ccn23)C[C@@H]1c1cc(F)c(F)cc1F [Example 5, (7R,8S)-3-(1,2,4-Oxadiazol-5-yl)-7-(2,4,5-trifluorophenyl)-6,7,8,9-tetrahydrobenzo[4,5]imidazo[1,2-a]pyridine-8-amine]",1,,,,,,,,,,,,,,,,
"Cc1nnc(-c2ccn3c4c(nc3c2)C[C@H](c2cc(F)c(F)cc2F)[C@@H](N)C4)o1 [Example 2, (7R,8S)-3-(5-Methyl-1,3,4-oxadiazol-2-yl)-7-(2,4,5-trifluorophenyl)-6,7,8,9-tetrahydrobenzo[4,5]imidazo[1,2-a]pyridin-8-amine]",1.2,9.4 ± 1.8,11.6 ± 2,7.7 ± 2.1,9.6 ± 1.3,7.8 ± 2.7,16.4 ± 3.7,17 ± 3.3,22.6 ± 3.1,22.6 ± 1.1,25.9 ± 3.8,,,,,,
"Cc1nc(-c2ccn3c4c(nc3c2)C[C@H](c2cc(F)c(F)cc2F)[C@@H](N)C4)no1 [Example 4, (7R,8S)-3-(5-Methyl-1,2,4-oxadiazol-3-yl)-7-(2,4,5-trifluorophenyl)-6,7,8,9-tetrahydrobenzo[4,5]imidazo[1,2-a]pyridin-8-amine]",1.9,11.5 ± 1.8,9 ± 1.3,10.2 ± 1.8,10.4 ± 1.8,11.6 ± 1.6,,24.4 ± 2.8,21.7 ± 1.7,20.4 ± 2,28.3 ± 2.3,,,,,,
"Cc1noc(-c2ccn3c4c(nc3c2)C[C@H](c2cc(F)c(F)cc2F)[C@@H](N)C4)n1 [Example 6, (7R,8S)-3-(3-Methyl-1,2,4-oxadiazol-5-yl)-7-(2,4,5-trifluorophenyl)-6,7,8,9-tetrahydrobenzo[4,5]imidazo[1,2-a]pyridin-8-amine]",1.9,,,,,,,,,,,16.9 ± 1.4,15.9 ± 1.9,15.7 ± 1,16 ± 1.2,19.5 ± 1.8,
